From the supplement of paper PMC10307832

Tests used:
Test in all cases: relative viability (nuclei count vs DMSO), 5 days (fraction); higher = more cells survive
[1] = compound: CC(=O)Nc1cccc(-n2c(=O)n(C3CC3)c(=O)c3c(Nc4ccc(I)cc4F)n(C)c(=O)c(C)c32)c1 [Trametinib] + CC(C)C[C@H](NC(=O)[C@H](Cc1ccccc1)NC(=O)c1cnccn1)B(O)O [Bortezomib] (partner 0.002 µM)
In short: (§1)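 Each reported value is a median over duplicate plates. It expresses relative viability: treated-well nuclei count divided by vehicle-well nuclei count. Lung cancer cell lines in 1536-well plates were dosed by pin tool a day after seeding, alone with one drug or with a fixed anchor-drug dose plus five library-drug doses (not always all listed) in √10 steps, and nuclei were counted after 5 days.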

[2] = compound: CC(=O)Nc1cccc(-n2c(=O)n(C3CC3)c(=O)c3c(Nc4ccc(I)cc4F)n(C)c(=O)c(C)c32)c1 [Trametinib] + COc1cccc2cc(-c3nc([C@H]4CC[C@H](C(=O)O)CC4)n4ncnc(N)c34)[nH]c12 [OSI-027] (partner 0.5 µM)
In short: as §1

[3] = compound: CN1C=C(C2=CC=CC=C21)/C=C\3/C4=C(C=CC=N4)NC3=O + C[C@]1(O)C[C@@H](c2nc(-c3ccc4ccc(-c5ccccc5)nc4c3)c3c(N)nccn32)C1 [Linsitinib] (partner 1 µM)
In short: as §1

[4] = compound: CN1C=C(C2=CC=CC=C21)/C=C\3/C4=C(C=CC=N4)NC3=O + Nc1nc2[nH]cc(CCc3ccc(C(=O)N[C@@H](CCC(=O)O)C(=O)O)cc3)c2c(=O)[nH]1 [Pemetrexed] (partner 0.2 µM)
In short: as §1

Cell Line	relative viability ([1]; first compound 0.0025 µM)	relative viability ([1]; first compound 0.007906 µM)	relative viability ([1]; first compound 0.025 µM)	relative viability ([1]; first compound 0.07906 µM)	relative viability ([1]; first compound 0.25 µM)	relative viability ([2]; first compound 0.0025 µM)	relative viability ([2]; first compound 0.007906 µM)	relative viability ([2]; first compound 0.025 µM)	relative viability ([2]; first compound 0.07906 µM)	relative viability ([2]; first compound 0.25 µM)	relative viability ([3]; first compound 0.02 µM)	relative viability ([3]; first compound 0.06325 µM)	relative viability ([3]; first compound 0.2 µM)	relative viability ([3]; first compound 0.6325 µM)	relative viability ([3]; first compound 2 µM)	relative viability ([4]; first compound 0.02 µM)	relative viability ([4]; first compound 0.06325 µM)	relative viability ([4]; first compound 0.2 µM)	relative viability ([4]; first compound 0.6325 µM)	relative viability ([4]; first compound 2 µM)
201T	1.08	1.01	0.942	1.05	0.801	0.707	0.642	0.633	0.443	0.505	0.993	1.05	0.967	1.09	0.786	0.31	0.317	0.365	0.342	0.358
A549											0.596	0.512		0.543	0.586					
A-427	1.1	1.05	0.735	0.763	0.601	0.373	0.287	0.212	0.242	0.143	1.06	1.07		1.15	1.12	0.981	0.973		0.94	0.983
ABC-1	0.301	0.299	0.255	0.251	0.235	0.403	0.439	0.28	0.266	0.225	0.797	0.704	0.604	0.729	0.712					
BEN	0.76	0.725		0.531	0.657	0.317	0.274	0.27	0.294	0.325	0.847	0.996	0.823	0.875	1.03	0.715	0.847	0.613	0.731	0.734
CAL-12T	0.784	0.734	0.645	1.43	0.454	0.543	0.333	0.224	0.353	0.193	0.821	0.787	0.809	1.05	0.809	1.1	1.13	1.21	1.34	1.34
COR-L23	0.982	1	1.02	0.935	0.309	0.686	0.7	0.364	0.455	0.249	0.924	0.967	0.865	1.03	0.865	0.197	0.189	0.209	0.18	0.19
COR-L 105	0.748	0.612	0.389	0.315	0.335	0.583	0.477	0.309	0.333	0.295	0.969	0.948	0.9	0.809	0.916	1.07	0.969	1.12	1.28	1.3
Calu-6	1.08	0.813	0.376	0.236	0.224						0.926	0.903	0.919	0.975	0.915					
ChaGo-K-1	1.12	0.871	1.05	0.713	0.476	0.558	0.488	0.51	0.423	0.403						0.252	0.255	0.241	0.269	0.245
EBC-1	0.631	0.544	0.427	0.376	0.337						1.03	0.873	0.723	0.922	0.971					
EKVX	0.797	0.628	0.6	0.373	0.331	0.667	0.532	0.379	0.473	0.426	0.911	0.926	0.921	0.729	0.883	0.371			0.354	0.352
EMC-BAC-2	1.05	0.99	0.865	1	0.859	0.452	0.488	0.381	0.511	0.359	0.787	0.826	0.806	0.852	0.867	0.407	0.438	0.442	0.465	0.421
EPLC-272H	1.02	0.841	0.516	0.737	0.157	0.319	0.285	0.192	0.129	0.183	1.54	1.12		1.31	1.23	0.3	0.274	0.298		0.369
H3255	0.814	0.769	0.597	0.42	0.344	0.595	0.571	0.462	0.397	0.338	1.06	0.989	0.945	0.816	1.11	0.578	0.549	0.493	0.615	0.54
HARA	1.09	1.06	0.983	0.745	0.0924	0.575	0.359	0.23	0.328	0.0752	0.93	0.92	1.03	0.932	1.06	0.24	0.24		0.263	0.216
HCC-15	0.946	0.62	0.731	0.492	0.203	0.436	0.338	0.201	0.161	0.167	0.907	0.841	0.933	0.853	0.976	0.228	0.211	0.223	0.217	0.211
HCC-44	0.926	0.905	0.946	0.816	0.585	0.487	0.249	0.424	0.311	0.183	0.577	0.637	0.651	0.593	0.604	0.58	0.613	0.664	0.648	0.636
HCC-78	0.399	0.404	0.4	0.395	0.332	0.366	0.361	0.313	0.343	0.333	0.444	0.51	0.233	0.423	0.487	0.907	0.945	0.951	0.903	0.913
HCC-366	0.962	0.897	0.902	0.645	0.172	0.684	0.763	0.371	0.414	0.201	0.616	0.566	0.656	0.575	0.51	0.148	0.142	0.196	0.155	0.133
HCC-827	0.943	0.989	0.974	0.92	0.748	0.702	0.671	0.529	0.392	0.429	0.929	0.923		0.944	0.926	0.227	0.28		0.247	0.258

Cell Line	relative viability ([1]; first compound 0.0025 µM)	relative viability ([1]; first compound 0.007906 µM)	relative viability ([1]; first compound 0.025 µM)	relative viability ([1]; first compound 0.07906 µM)	relative viability ([1]; first compound 0.25 µM)	relative viability ([2]; first compound 0.0025 µM)	relative viability ([2]; first compound 0.007906 µM)	relative viability ([2]; first compound 0.025 µM)	relative viability ([2]; first compound 0.07906 µM)	relative viability ([2]; first compound 0.25 µM)	relative viability ([3]; first compound 0.02 µM)	relative viability ([3]; first compound 0.06325 µM)	relative viability ([3]; first compound 0.2 µM)	relative viability ([3]; first compound 0.6325 µM)	relative viability ([3]; first compound 2 µM)	relative viability ([4]; first compound 0.02 µM)	relative viability ([4]; first compound 0.06325 µM)	relative viability ([4]; first compound 0.2 µM)	relative viability ([4]; first compound 0.6325 µM)	relative viability ([4]; first compound 2 µM)
HOP-62	0.776	0.956	0.425	0.439	0.186	0.879	0.873	0.493	0.219	0.188	0.923	0.961	1.07	1.03	1.02	0.285	0.299		0.357	0.366
IA-LM	0.621	0.392	0.174	0.178	0.111						0.85	0.668	0.477	0.762	0.771					
LC-2-ad	0.999	0.898	0.928	0.713	0.443	0.853	0.57	0.513	0.516	0.416	0.743	0.83	0.766	0.864	0.765	0.287	0.255	0.26	0.271	0.285
LCLC-97TM1	0.616	0.482	0.128	0.0773	0.0973	0.346	0.379	0.268	0.272	0.271	0.164			0.203	0.179		0.177	0.18	0.21	0.186
LK-2						0.197	0.205	0.164	0.18	0.186	0.365	0.333		0.474	0.504	0.192	0.241	0.199	0.309	0.297
NCI-H358						0.393	0.341	0.19	0.174	0.14	0.632	0.643	0.881	0.795	0.686	0.172	0.15	0.167	0.172	0.164
NCI-H522						0.592	0.653	0.595	1.57	0.587						0.743	0.775	0.878	1.1	0.998
NCI-H727	0.663	0.422	0.272	0.257	0.277	0.426	0.39	0.266	0.274	0.317	0.285	0.204	0.282	0.323	0.263					
NCI-H1299	1.04	0.992	0.971	0.955	0.739						1.07	1.03	1.06	1.06	1.05					
NCI-H1395						0.693	0.617	0.552	0.468	0.404	0.977	1.11		1.15	0.945	0.82	0.739	0.707	0.845	0.815
NCI-H1623						0.361	0.35	0.326	0.28	0.311										
NCI-H1648							0.28	0.273	0.279	0.272						0.729	0.777	0.922	0.691	0.739
NCI-H1650	0.218	0.19	0.182	0.198	0.188	0.632	0.604	0.534	0.451	0.204						0.39	0.352	0.371	0.384	0.328
NCI-H1703	0.294	0.263	0.372	0.369	0.287						0.489	0.848	0.581	0.94	1.02					
NCI-H1793						0.245	0.236	0.204	0.199	0.199	1	1.06	0.748	0.95	0.884	0.876	1.11	0.73	0.785	0.988
NCI-H1944						0.359	0.309	0.318	0.279	0.23	1.19	1.18		1.32	1.23	0.549	0.558		0.617	0.652
NCI-H2170						0.754	0.659	0.392	0.613	0.616						0.261	0.254	0.292	0.264	0.257
NCI-H2342						0.56	0.552		0.471	0.577						0.704	0.747	0.736	0.756	0.767
SK-MES-1						0.647	0.582	0.46	0.447	0.266	0.937	1.18	1.09	1.02	1.06	0.846	0.856	0.687	0.954	0.852
SW 900						0.629	0.539	0.424	0.428	0.167						0.474			0.512	0.486
